24 compounds from patent US20260325685A1, “Radiopharmaceutical Compositions Targeting Carbonic Anhydrase IX and Uses Thereof” (RayzeBio, Inc., priority 2023, published 2026) can be followed below.

The target of assay [1] is T1, human CA-IX (Homo sapiens, UniProt Q16790).
T1 construct: purchased Acro CA9-H82E3
Nature of the assay: Surface Plasmon Resonance (SPR) binding kinetics to recombinant human CA-IX (Biacore 8K, single-cycle kinetics, 1:1 binding model). The gist of the method: (§1)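 Proteins were captured on streptavidin chips at 1200-1800 RU (CA-IX 180 s, CA-XII 75 s injection). Compound was run at 9 concentrations (100-0.39 nM) in PBS-P+ pH 7.4 with 1% DMSO, 120 s association, 1200 s dissociation, 25° C. Rate constants came from reference- and DMSO-corrected curves.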

For assay [2], the target named is T2, human CA-XII (Homo sapiens, UniProt O43570).
T2 construct: purchased Creative BioMart CA12-261H
Description: Surface Plasmon Resonance (SPR) binding kinetics to recombinant human CA-XII (Biacore 8K, single-cycle kinetics, 1:1 binding model). The method in brief:
as §1
On the technique in general: In SPR one partner is held on a chip, and binding of the other changes the refractive index at the surface.

Setting [3] is: Chelated Metal: Lu-175; SPR, 25° C., pH 7.4; read-out: CAIX KD.
[4] abbreviates: Chelated Metal: Lu-175, 25° C., pH 7.4, read-out: CAXII KD.
[5] abbreviates: Chelated Metal: None; SPR, 25° C., pH 7.4; read-out: CAIX KD.
[6] abbreviates: KD ratio CAXII/CAIX; Chelated Metal: None.
Setting [7] is: Chelated Metal: None, 25° C., pH 7.4, read-out: CAXII KD.
Where [8] appears, read: read-out: CAIX KD; Chelated Metal: Lu-175; SPR, 25° C., pH 7.4.
[9] abbreviates: read-out: CAXII KD, Chelated Metal: Lu-175, 25° C., pH 7.4.

Where two headings read alike, the source gives them in different places.

T2 sequence (O43570 25-354): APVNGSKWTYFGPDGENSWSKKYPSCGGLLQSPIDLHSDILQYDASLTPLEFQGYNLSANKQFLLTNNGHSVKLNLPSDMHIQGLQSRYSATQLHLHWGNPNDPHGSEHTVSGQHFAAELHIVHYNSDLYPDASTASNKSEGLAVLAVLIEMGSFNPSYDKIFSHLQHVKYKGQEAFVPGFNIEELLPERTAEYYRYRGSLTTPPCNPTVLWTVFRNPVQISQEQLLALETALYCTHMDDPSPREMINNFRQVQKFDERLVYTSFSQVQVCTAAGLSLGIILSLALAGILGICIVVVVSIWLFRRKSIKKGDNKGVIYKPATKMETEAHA

As a reminder, the Kd is a measure of binding affinity in units of concentration. For the compound `NS(=O)(=O)c1nnc(NC(=O)C23CCC(c4cn(CCNC(=O)[C@@H]5CN(C(=O)CN6CCN(CC(=O)O)CCN(CC(=O)O)CCN(CC(=O)O)CC6)CCN5C(=O)CC[C@H](NC(=O)C[C@H](NC(=O)c5cc(C(F)(F)F)[nH]n5)C(=O)O)C(=O)O)nn4)(CC2)CC3)s1.[Lu+3]` [Compound 109.47], the Kd in assay [1] (setting [3]) and in assay [2] (setting [4]) was less than 1 nM each time.

In the case of `NS(=O)(=O)c1nnc(NC(=O)C23CCC(c4cn(CCNC(=O)[C@@H]5CN(C(=O)CN6CCN(CC(=O)O)CCN(CC(=O)O)CCN(CC(=O)O)CC6)CCN5C(=O)CC[C@H](NC(=O)C[C@H](NC(=O)CCC5CC5)C(=O)O)C(=O)O)nn4)(CC2)CC3)s1.[Lu+3]` [Compound 109.48], the equilibrium dissociation constant (Kd) in assay [1] (setting [3]) and in assay [2] (setting [4]) was less than 1 nM throughout.

For the compound `Cc1c(C(F)(F)F)n[nH]c1C(=O)N[C@@H](CC(=O)N[C@@H](CCC(=O)N1CCN(C(=O)CN2CCN(CC(=O)O)CCN(CC(=O)O)CCN(CC(=O)O)CC2)C[C@H]1C(=O)NCCn1cc(C23CCC(C(=O)Nc4nnc(S(N)(=O)=O)s4)(CC2)CC3)nn1)C(=O)O)C(=O)O.[Lu+3]` [Compound 109.49], the Kd in assay [1] (setting [3]) and in assay [2] (setting [4]) was less than 1 nM throughout.

Turning to `NS(=O)(=O)c1nnc(NC(=O)C23CCC(c4cn(CCNC(=O)[C@@H]5CN(C(=O)CN6CCN(CC(=O)O)CCN(CC(=O)O)CCN(CC(=O)O)CC6)CCN5C(=O)CC[C@H](NC(=O)C[C@H](NC(=O)c5n[nH]c6ccccc56)C(=O)O)C(=O)O)nn4)(CC2)CC3)s1.[Lu+3]` [Compound 109.50], the Kd in assay [1] (setting [3]) and in assay [2] (setting [4]) was less than 1 nM each time.

For `NS(=O)(=O)c1nnc(NC(=O)C23CCC(c4cn(CCNC(=O)[C@@H]5CN(C(=O)CN6CCN(CC(=O)O)CCN(CC(=O)O)CCN(CC(=O)O)CC6)CCN5C(=O)CC[C@H](NC(=O)C[C@H](NC(=O)C5CC6(CCC6)C5)C(=O)O)C(=O)O)nn4)(CC2)CC3)s1.[Lu+3]` [Compound 109.51], the Kd in assay [1] (setting [3]) and in assay [2] (setting [4]) was less than 1 nM each time.

In the case of `NS(=O)(=O)c1nnc(NC(=O)C23CCC(c4cn(CCNC(=O)[C@@H]5CN(C(=O)CN6CCN(CC(=O)O)CCN(CC(=O)O)CCN(CC(=O)O)CC6)CCN5C(=O)CC[C@H](NC(=O)C[C@H](NC(=O)CCC(F)(F)F)C(=O)O)C(=O)O)nn4)(CC2)CC3)s1.[Lu+3]` [Compound 109.53], the equilibrium dissociation constant (Kd) in assay [1] (setting [3]) and in assay [2] (setting [4]) was less than 1 nM each time.

Turning to `NS(=O)(=O)c1nnc(NC(=O)C23CCC(c4cn(CCNC(=O)[C@@H]5CN(C(=O)CN6CCN(CC(=O)O)CCN(CC(=O)O)CCN(CC(=O)O)CC6)CCN5C(=O)CC[C@H](NC(=O)C[C@H](NC(=O)c5ccc(C6CC6)cc5)C(=O)O)C(=O)O)nn4)(CC2)CC3)s1.[Lu+3]` [Compound 109.54], the equilibrium dissociation constant (Kd) in assay [1] (setting [3]) and in assay [2] (setting [4]) was less than 1 nM in each case.

Turning to `NS(=O)(=O)c1nnc(NC(=O)C23CCC(c4cn(CCNC(=O)[C@@H]5CN(C(=O)CN6CCN(CC(=O)O)CCN(CC(=O)O)CCN(CC(=O)O)CC6)CCN5C(=O)CC[C@H](NC(=O)C[C@H](NC(=O)c5ccc(C6CCCCC6)cc5)C(=O)O)C(=O)O)nn4)(CC2)CC3)s1.[Lu+3]` [Compound 109.55], the dissociation constant (Kd) in assay [1] (setting [3]) and in assay [2] (setting [4]) was less than 1 nM each time.

Regarding `NS(=O)(=O)c1nnc(NC(=O)C23CCC(c4cn(CCNC(=O)[C@@H]5CN(C(=O)CN6CCN(CC(=O)O)CCN(CC(=O)O)CCN(CC(=O)O)CC6)CCN5C(=O)CC[C@H](NC(=O)C[C@H](NC(=O)c5ccc(C6CC6)nc5)C(=O)O)C(=O)O)nn4)(CC2)CC3)s1.[Lu+3]` [Compound 109.56], the figures for the Kd in assay [1] (setting [3]) and in assay [2] (setting [4]) were less than 1 nM and 1 to 2.5 nM, respectively.

Turning to `NS(=O)(=O)c1nnc(NC(=O)C23CCC(c4cn(CCNC(=O)[C@@H]5CN(C(=O)CN6CCN(CC(=O)O)CCN(CC(=O)O)CCN(CC(=O)O)CC6)CCN5C(=O)CC[C@H](NC(=O)C[C@H](NC(=O)CCC56CCC(CC5)C6)C(=O)O)C(=O)O)nn4)(CC2)CC3)s1.[Lu+3]` [Compound 109.57], the Kd in assay [1] (setting [3]) and in assay [2] (setting [4]) was less than 1 nM throughout.

Regarding `NS(=O)(=O)c1nnc(NC(=O)C23CCC(c4cn(CCNC(=O)[C@@H]5CN(C(=O)CN6CCN(CC(=O)O)CCN(CC(=O)O)CCN(CC(=O)O)CC6)CCN5C(=O)CC[C@H](NC(=O)C[C@H](NC(=O)c5ccc(S(F)(F)(F)(F)F)cc5)C(=O)O)C(=O)O)nn4)(CC2)CC3)s1.[Lu+3]` [Compound 109.58], the dissociation constant (Kd) in assay [1] (setting [3]) and in assay [2] (setting [4]) was less than 1 nM each time.

Take `NS(=O)(=O)c1nnc(NC(=O)C23CCC(c4cn(CCNC(=O)[C@@H]5CN(C(=O)CN6CCN(CC(=O)O)CCN(CC(=O)O)CCN(CC(=O)O)CC6)CCN5C(=O)CC[C@H](NC(=O)C[C@H](NC(=O)c5coc(C(F)(F)F)n5)C(=O)O)C(=O)O)nn4)(CC2)CC3)s1.[Lu+3]` [Compound 109.59]: the Kd in assay [1] (setting [3]) and in assay [2] (setting [4]) was less than 1 nM in each case.

For `N[C@@H](CC(=O)N[C@@H](CCC(=O)N1CCN(C(=O)CN2CCN(CC(=O)O)CCN(CC(=O)O)CCN(CC(=O)O)CC2)C[C@H]1C(=O)NCCn1cc(C23CCC(C(=O)Nc4nnc(S(N)(=O)=O)s4)(CC2)CC3)nn1)C(=O)O)C(=O)O.[Lu+3]` [Compound 109.60], the Kd in assay [1] (setting [3]) was less than 1 nM; in assay [2] (setting [4]) it was 1 to 2.5 nM.

For the compound `NS(=O)(=O)c1nnc(NC(=O)C23CC(c4cn(CCNC(=O)[C@@H]5CN(C(=O)CN6CCN(CC(=O)O)CCN(CC(=O)O)CCN(CC(=O)O)CC6)CCN5C(=O)C[C@H](NC(=O)C[C@H](NC(=O)C5CC6(C5)CC(F)(F)C6)C(=O)O)C(=O)O)nn4)(C2)C3)s1.[Lu+3]` [Compound 109.61], the Kd in assay [1] (setting [3]) is 1 to 2.5 nM; in assay [2] (setting [4]), 2.5 to 10 nM.

On to `CC(CCCC(=O)N[C@@H](CC(=O)N[C@@H](CC(=O)N1CCN(C(=O)CN2CCN(CC(=O)O)CCN(CC(=O)O)CCN(CC(=O)O)CC2)C[C@H]1C(=O)NCCn1cc(C23CC(C(=O)Nc4nnc(S(N)(=O)=O)s4)(C2)C3)nn1)C(=O)O)C(=O)O)(c1ccc(O)cc1)c1ccc(O)cc1` [Compound 109.62], for which the Kd was less than 1 nM in assay [1] (setting [5]) and more than 10 nM in assay [2] (setting [7]). In assay [1] (setting [6]), the “Ratio (CAXII/CAIX)” value is reported as “*** (10 < *** ≤ 50)”.

As to `NS(=O)(=O)c1nnc(NC(=O)C23CC(c4cn(CCNC(=O)[C@@H]5CN(C(=O)CN6CCN(CC(=O)O)CCN(CC(=O)O)CCN(CC(=O)O)CC6)CCN5C(=O)C[C@H](NC(=O)C[C@H](NC(=O)Cc5ccc(C6CC6)cc5)C(=O)O)C(=O)O)nn4)(C2)C3)s1` [Compound 109.63], the Kd was less than 1 nM in assay [1] (setting [5]) and 2.5 to 10 nM in assay [2] (setting [7]). For the same compound, the “Ratio (CAXII/CAIX)” value in assay [1] (setting [6]) is “*** (10 < *** ≤ 50)”.

As to `NS(=O)(=O)c1nnc(NC(=O)C23CC(c4cn(CCNC(=O)[C@@H]5CN(C(=O)CN6CCN(CC(=O)O)CCN(CC(=O)O)CCN(CC(=O)O)CC6)CCN5C(=O)C[C@H](NC(=O)C[C@H](NC(=O)c5cccc(C6CC6)c5)C(=O)O)C(=O)O)nn4)(C2)C3)s1.[Lu+3]` [Compound 109], the Kd in assay [1] (setting [8]) was less than 1 nM; in assay [2] (setting [9]), 2.5 to 10 nM.

On to `NS(=O)(=O)c1nnc(NC(=O)C23CCC(c4cn(CCNC(=O)[C@@H]5CN(C(=O)CN6CCN(CC(=O)O)CCN(CC(=O)O)CCN(CC(=O)O)CC6)CCN5C(=O)CC[C@H](NC(=O)C[C@H](NCc5ccccc5)C(=O)O)C(=O)O)nn4)(CC2)CC3)s1.[Lu+3]` [Compound 110], for which the equilibrium dissociation constant (Kd) in assay [1] (setting [8]) and in assay [2] (setting [9]) was less than 1 nM in each case.

With `CC(CCNC(=O)c1cnc(N[C@@H](CC(=O)N2CCN(C(=O)CN3CCN(CC(=O)O)CCN(CC(=O)O)CCN(CC(=O)O)CC3)C[C@@H]2C(=O)NCCn2cc(C34CC(C(=O)Nc5nnc(S(N)(=O)=O)s5)(C3)C4)nn2)C(=O)O)nc1)(c1ccc(O)cc1)c1ccc(O)cc1.[Lu+3]` [Compound 111.1], the Kd in assay [1] (setting [3]) was 1 to 2.5 nM; in assay [2] (setting [4]) it was more than 10 nM.

In the case of `NS(=O)(=O)c1nnc(NC(=O)C23CC(c4cn(CCNC(=O)[C@@H]5CN(C(=O)CN6CCN(CC(=O)O)CCN(CC(=O)O)CCN(CC(=O)O)CC6)CCN5C(=O)C[C@H](Nc5ncc(C(=O)NCc6ccc(C7CC7)cn6)cn5)C(=O)O)nn4)(C2)C3)s1.[Lu+3]` [Compound 111.2], the values for the Kd in assay [1] (setting [3]) and in assay [2] (setting [4]) were 2.5 to 10 nM and more than 10 nM, respectively.

With `NS(=O)(=O)c1nnc(NC(=O)C23CC(c4cn(CCNC(=O)[C@@H]5CN(C(=O)CN6CCN(CC(=O)O)CCN(CC(=O)O)CCN(CC(=O)O)CC6)CCN5C(=O)C[C@H](Nc5ncc(C(=O)NCc6ccc(C7CC7)cc6)cn5)C(=O)O)nn4)(C2)C3)s1.[Lu+3]` [Compound 111.3], the figures for the Kd in assay [1] (setting [3]) and in assay [2] (setting [4]) were 1 to 2.5 nM and more than 10 nM, respectively.

With `NS(=O)(=O)c1nnc(NC(=O)C23CC(c4cn(CCNC(=O)[C@@H]5CN(C(=O)CN6CCN(CC(=O)O)CCN(CC(=O)O)CCN(CC(=O)O)CC6)CCN5C(=O)C[C@H](Nc5ncc(C(=O)N6CCC(c7ccc(O)cc7)(c7ccc(O)cc7)CC6)cn5)C(=O)O)nn4)(C2)C3)s1.[Lu+3]` [Compound 111.4], the Kd was 2.5 to 10 nM in assay [1] (setting [3]) and more than 10 nM in assay [2] (setting [4]).

`NS(=O)(=O)c1nnc(NC(=O)C23CC(c4cn(CCNC(=O)[C@@H]5CN(C(=O)CN6CCN(CC(=O)O)CCN(CC(=O)O)CCN(CC(=O)O)CC6)CCN5C(=O)C[C@H](Nc5ncc(C(=O)NCc6coc(C(F)(F)F)n6)cn5)C(=O)O)nn4)(C2)C3)s1.[Lu+3]` [Compound 111.5]: the Kd was 2.5 to 10 nM in assay [1] (setting [3]) and more than 10 nM in assay [2] (setting [4]).

Turning to `NS(=O)(=O)c1nnc(NC(=O)C23CC(c4cn(CCNC(=O)[C@@H]5CN(C(=O)CN6CCN(CC(=O)O)CCN(CC(=O)O)CCN(CC(=O)O)CC6)CCN5C(=O)C[C@H](Nc5ncc(C(=O)NCc6ccc(C(F)F)cc6)cn5)C(=O)O)nn4)(C2)C3)s1.[Lu+3]` [Compound 111.6], the Kd was 2.5 to 10 nM in assay [1] (setting [3]) and more than 10 nM in assay [2] (setting [4]).
